What all share (type): in vivo
Experiment [1] deals with Rhizoctonia solani, pathogen of brown patch of turf. Kind of experiment: Test Example 5: foliage application on turf, brown patch control (with metconazole). The following applies: 10 days after inoculation. As to the method:
Control value=100(A−B)/A “Equation 1”; Generally, the control value expected for the case where the given two kinds of active ingredient compounds are mixed and used for the treatment, the so-called control value expectation is calculated from the following Colby's calculating equation. E=X+Y−(X×Y)/100 “Equation 2”; E: Control value (%) expected for the case in which active ingredient compound A in M ppm, in M g per 100 kg of seeds or in M g per 1 hectare and active ingredient compound B in N ppm, in N g per 100 kg of seeds or in N g per 1 hectare are mixed and used for treatment (hereinbelow referred to as “control value expectation”) “Synergetic effect(%)”=(Actual control value)×100/(Control value expectation) A plastic pot was filled with sandy soil, and turf (Bent grass Penncross) was then disseminated. The turf was allowed to grow in a green house for 20 days. A wettable powder of the compound (1b) and a commercially available metconazole formulation (Caramba (registered trademark) produced by BASF) were respectively diluted with water and then tank-mixed so as to prepare tank-mixed liquids containing the compound (1b) and the metconazole in predetermined concentration. The tank-mixed liquids were subjected to foliage application such that they could be sufficiently adhered to the leaves of the aforementioned turf plants. After completion of the foliage application, the plants were air-dried. Thereafter, bran medium containing mycelium of Rhizoctonia solani, pathogen of brown patch of turf, was sprinkled over the planted area. […] The diameter of infected area on the planted area on which the agents had been sprayed was determined as the incidence of disease at the time of checking and the control value was calculated by the aforementioned Equation 1 based on the incidence of disease determined. […] Besides, in order to calculate the control value, the incidence of disease was also determined in the case in which the plants had not been treated with the agent.

The test system of experiment [2] is Botrytis cinerea, pathogen of gray mold of cucumber. Put plainly: Test Example 3: foliage application on cucumber, gray mold control (with ipconazole). To be noted: 6 days after inoculation. The procedure:
Control value=100(A−B)/A “Equation 1”;
Generally, the control value expected for the case where the given two kinds of active ingredient compounds are mixed and used for the treatment, the so-called control value expectation is calculated from the following Colby's calculating equation. E=X+Y−(X×Y)/100 “Equation 2”; […]
A plastic pot was filled with sandy soil, and cucumber (Sagamihanjiro) was then disseminated. […] The diameter of infected area on the plants on which the agents had been sprayed was determined as the incidence of disease at the time of checking and the control value was calculated by the aforementioned Equation 1 based on the incidence of disease thus determined.
As a comparison, the respective wettable powders described above were diluted with water in predetermined concentration so as to prepare a compound (1b) liquid and an ipconazole liquid respectively and they were subjected to similar disease control test. Besides, in order to calculate the control value, the incidence of disease was also determined in the case in which the plants has not been treated with the agent.

Experiment [3] shares this test system. Put plainly: Test Example 1: foliage application on cucumber, gray mold control (with metconazole). To be noted: 6 days after inoculation. The text has this:
A plastic pot was filled with sandy soil, and cucumber (Sagamihanjiro) was then disseminated. The cucumber was allowed to grow in a green house for 12 days. A wettable powder of the compound (1b) and a commercially available metconazole formulation (Caramba (registered trademark) produced by BASF) were respectively diluted with water and then tank-mixed so as to prepare tank-mixed liquids containing compound (1b) and metconazole in predetermined concentration. The tank-mixed liquids were subjected to foliage application such that they could be sufficiently adhered to the leaves of the aforementioned cucumber plants. After completion of the foliage application, the plants were air-dried. […] The diameter of infected area on the plants on which the agents had been sprayed was determined as the incidence of disease at the time of checking and the control value was calculated by Equation 1 based on the incidence of disease thus determined.
As a comparison, the respective wettable powders described above were diluted with water in predetermined concentration so as to prepare a compound (1b) liquid and a metconazole liquid respectively and they were subjected to similar disease control test. Besides, in order to calculate the control value, the incidence of disease was also determined in the case in which the plants had not been treated with the agent. […]

For experiment [4], the system named is Rhizoctonia solani, pathogen of cucumber damping-off. Put plainly: Test Example 4: smear treatment of cucumber seeds, damping-off control (with ipconazole). To be noted: ipconazole alone 1 g/100 kg-seed, seventh day. As to the method:
Control value=100(A−B)/A “Equation 1”; Generally, the control value expected for the case where the given two kinds of active ingredient compounds are mixed and used for the treatment, the so-called control value expectation is calculated from the following Colby's calculating equation. E=X+Y−(X×Y)/100 “Equation 2”; E: Control value (%) expected for the case in which active ingredient compound A in M ppm, in M g per 100 kg of seeds or in M g per 1 hectare and active ingredient compound B in N ppm, in N g per 100 kg of seeds or in N g per 1 hectare are mixed and used for treatment (hereinbelow referred to as “control value expectation”) “Synergetic effect(%)”=(Actual control value)×100/(Control value expectation) The results are shown in Table 3. […] They were allowed to grow in a greenhouse while irrigated and the number of non-budding seeds was checked on the seventh day after the dissemination and the incidence of disease was calculated by the aforementioned Equation 3. The control value was calculated by the aforementioned Equation 1 based on the incidence of disease. In order to calculate the control value, the incidence of disease was also determined in the case in which the plants had not been treated with the agent. […]

For experiment [5] the test system is unchanged. Kind of experiment: Test Example 2: smear treatment of cucumber seeds, damping-off control (with metconazole). To be noted: metconazole alone 1 g/100 kg-seed, seventh day. The procedure: Control value=100(A−B)/A “Equation 1”; Generally, the control value expected for the case where the given two kinds of active ingredient compounds are mixed and used for the treatment, the so-called control value expectation is calculated from the following Colby's calculating equation. E=X+Y−(X×Y)/100 “Equation 2”; E: Control value (%) expected for the case in which active ingredient compound A in M ppm, in M g per 100 kg of seeds or in M g per 1 hectare and active ingredient compound B in N ppm, in N g per 100 kg of seeds or in N g per 1 hectare are mixed and used for treatment (hereinbelow referred to as “control value expectation”) “Synergetic effect(%)”=(Actual control value)×100/(Control value expectation) Mixed liquids containing an acetone solution of compound (1b) and an acetone solution of metconazole were prepared. These mixed liquids were used for smear treatment of cucumber (Sagamihanjiro) seeds using a rotary seed treatment machine (seed dresser, produced by Hans-Ulrich Hege GmbH) so as to obtain treated seeds. […] They were allowed to grow in a greenhouse while irrigated and the number of non-budding seeds was checked on the seventh day after the dissemination and the incidence of disease was calculated by Equation 3. The control value was calculated by the aforementioned Equation 1 based on the incidence of disease. […]

Each structure is given as a SMILES string.

As to `CNC(=O)C(OC)c1ccccc1COc1cc(C)ccc1C` (racemic) [Compound (1b)], the Actual control value stood at 88% in experiment [1] (compound (1b) alone 600 g/ha), 8% in experiment [2] (compound (1b) alone 0.2 ppm) and 16% in experiment [3] (compound (1b) alone 0.2 ppm).
Turning to `CC(C)C1CCC(Cc2ccc(Cl)cc2)C1(O)Cn1cncn1` (stereo not drawn) [Ipconazole, ipconazole], the Actual control value in experiment [2] (ipconazole alone 3.1 ppm) is listed as 13%; in experiment [4], 30%.
Consider `CC1(C)CCC(Cc2ccc(Cl)cc2)C1(O)Cn1cncn1` (stereo not drawn) [Metconazole, metconazole], for which the Actual control value in experiment [1] (metconazole alone 9.4 g/ha) is 63%; in experiment [1] (metconazole alone 37.5 g/ha) it was 63%; in experiment [5], 39%; in experiment [3] (metconazole alone 0.8 ppm) it was 8%.

For the origin of these results see US8846566B2, “Composition for controlling plant diseases and method for controlling plant diseases” (Sumitomo Chemical Company, Limited, priority 2008, dated 2014).
